Results published in patent EP0326331B1, “Substituted quinolines and cinnolines” (Dow AgroSciences LLC, priority 1988, dated 1989).
Where two headings read alike, the source gives them in different places.

Columns and labels:
Format in all cases: in vivo
[1] = test system: Pseudoperonospora cubensis (downy mildew); experiment: Test 1 greenhouse foliar spray screen, downy mildew on squash; conditions: disease control rating, foliar spray on squash, 400 ppm (+++ at 100 ppm)
[2] = test system: southern armyworm (Spodopetra eridania Cramer); experiment: Mite/insect screen, SAW; conditions: Spodoptera eridania, percent mortality, read-out: SAW RESULTS %
Method: (§1) The compounds of Examples 1-295 were tested for miticidal and insecticidal activity in the following mite/insect screen.
(§2) Each test compound was formulated by dissolving the compound in acetone/alcohol (50:50) mixture containing 23 g of "TOXIMUL R" (sulfonate/nonionic emulsifier blend) and 13 g of "TOXIMUL S" (sulfonate/nonionic emulsifier blend) per liter. These mixtures were then diluted with water to give the indicated concentrations.
(§3) Other plants in the same treatment pot were left uninfested. The leaves were then sprayed with 5 ml of test solution using a DeVilbiss atomizing sprayer at 10 psi. Both surfaces of the leaves were covered until runoff, and then allowed to dry for one hour. Two uninfested leaves were then excised and placed into a Petri dish containing southern armyworm (Spodopetra eridania Cramer).
(§4) After standard exposure periods, percent mortality was evaluated. […]

[3] = test system: Pyricularia oryzae (rice blast); experiment: whole plant or invertebrate; conditions: for RICE BLAST: disease control rating, foliar spray on rice, 400 ppm (+++ at 100 ppm)
[4] = test system: Erysiphe graminis tritici (powdery mildew); experiment: Test 1 greenhouse foliar spray screen, powdery mildew on wheat; conditions: for POWD MDEW: disease control rating, foliar spray on wheat, 400 ppm (+++ at 100 ppm)
[5] = test system: Twospotted spider mites (Tetranychus urticae Koch); experiment: Mite/insect screen, SM; conditions: Tetranychus urticae, percent mortality, read-out: SM RESULTS %
Method: as §1, §2, §3, §4

[6] = test system: Puccinia recondita tritici (leaf rust); experiment: Test 1 greenhouse foliar spray screen, leaf rust on wheat; conditions: for LEAF RUST: disease control rating, foliar spray on wheat, 400 ppm (+++ at 100 ppm)
[7] = test system: Botrytis cinerea (gray mold); experiment: Test 1 greenhouse foliar spray screen, gray mold on grape berries; conditions: for GRAY MOLD: disease control rating, spray on grape berries, 400 ppm (+++ at 100 ppm)
[8] = test system: melon aphids (Aphis gossypii Glover); experiment: Mite/insect screen, MA; conditions: Aphis gossypii, percent mortality, read-out: MA RESULTS %
Method: as §1, §2, §3, §4

corn rootworm = experiment: Mite/insect screen, CRW; conditions: percent mortality, read-out: CRW RESULTS %
Method: as §1, §2, §4

[9] = foliar, rate 200 ppm, foliar spray on squash
[10] = foliar, rate 400 ppm, foliar spray on squash

| Structure (SMILES) | DOWN MDEW [1] | mortality at 200 ppm ([2]; SAW, SM & MA RATE 200 PPM) | RICE BLAST [3] | POWD MDEW [4] | mortality at 200 ppm ([5]; SAW, SM & MA RATE 200 PPM) | LEAF RUST [6] | GRAY MOLD [7] | mortality at 200 ppm ([8]; SAW, SM & MA RATE 200 PPM) | mortality at 12 ppm (corn rootworm; CRW RATE 12.00 PPM) | mortality at 400 ppm ([2]; SAW, SM & MA RATE 400 PPM) | mortality at 400 ppm ([5]; SAW, SM & MA RATE 400 PPM) | mortality at 400 ppm ([8]; SAW, SM & MA RATE 400 PPM) | mortality at 24 ppm (corn rootworm; CRW RATE 24.00 PPM) | other results |
| --- | --- | --- | --- | --- | --- | --- | --- | --- | --- | --- | --- | --- | --- | --- |
| CCc1cccc2c(NCCc3ccccc3)ccnc12 [Example 29, 8-ethyl-N-(2-phenylethyl)-4-quinolinamine] | - (0-19% control at 400 ppm) | 0% | + (20-89% control at 400 ppm) | - (0-19% control at 400 ppm) | 0% | + (20-89% control at 400 ppm) | - (0-19% control at 400 ppm) | 0% | 0% | – | – | – | – | – |
| Clc1ccc(CCNc2ccnc3cc(Cl)ccc23)cc1 [Example 37, 7-chloro-N-[2-(4-chlorophenyl)ethyl]-4-quinolinamine] | + (20-89% control at 400 ppm) | 0% | - (0-19% control at 400 ppm) | + (20-89% control at 400 ppm) | 0% | + (20-89% control at 400 ppm) | - (0-19% control at 400 ppm) | 0% | 0% | 0% | 0% | 0% | 0% | – |
| Fc1cc(F)c2nccc(NCCc3ccc(-c4ccccc4)cc3)c2c1 [Example 40, 6,8-difluoro-N-(2-[1,1'-biphenyl]-4-ylethyl)-4-quinolinamine] | + (20-89% control at 400 ppm) | 0% | ++ (90-100% control at 400 ppm) | - (0-19% control at 400 ppm) | 0% | +++ (90-100% control at 100 ppm) | - (0-19% control at 400 ppm) | 0% | 0% | 80% | 0% | 0% | 100% | – |
| FC(F)(F)c1ccc2c(NCCc3ccc(Cl)cc3)ccnc2c1 [Example 47, N-[2-(4-chlorophenyl)ethyl]-7-(trifluoromethyl)-4-quinolinamine] | + (20-89% control at 400 ppm) | 0% | - (0-19% control at 400 ppm) | + (20-89% control at 400 ppm) | 0% | + (20-89% control at 400 ppm) | - (0-19% control at 400 ppm) | 0% | 0% | 0% | 0% | 0% | 0% | – |
| Cc1ccc(CCNc2ccnc3ccc(C)cc23)cc1 [Example 58, 6-methyl-N-[2-(4-methylphenyl)ethyl]-4-quinolinamine] | +++ (90-100% control at 100 ppm) | – | - (0-19% control at 400 ppm) | - (0-19% control at 400 ppm) | – | + (20-89% control at 400 ppm) | - (0-19% control at 400 ppm) | – | – | 0% | 0% | 0% | 0% | – |
| [O-][S+](CCc1ccccc1)c1ccnc2c(F)cccc12 (stereo not drawn) [Example 264, 8-fluoro-4-[(2-phenylethyl)sulfinyl]quinoline] | – | – | – | – | – | – | – | – | – | – | – | – | – | mortality at 200 ppm [2, 9]: 0%; mortality at 400 ppm [2, 10]: 0%; pest or weed control at 400 ppm ([3]; Pyricularia oryzae, foliar, read-out: RICE BLAST, Test 1, foliar spray on rice, disease control rating at 400 ppm / 100 ppm): 0 to 19%; pest or weed control at 400 ppm ([4]; Blumeria graminis, foliar, Test 1, foliar spray on wheat, disease control rating at 400 ppm / 100 ppm, read-out: POWD MDEW): 0 to 19%; mortality at 200 ppm [5, 9]: 0%; mortality at 400 ppm [5, 10]: 0%; pest or weed control at 400 ppm ([6]; Puccinia recondita, foliar, Test 1, foliar spray on wheat, disease control rating at 400 ppm / 100 ppm): 20 to 89%; pest or weed control at 400 ppm ([7]; Botrytis cinerea, foliar, Test 1, spray on grape berries, disease control rating at 400 ppm / 100 ppm): 0 to 19%; mortality at 200 ppm [8, 9]: 0%; mortality at 400 ppm [8, 10]: 0%; mortality at 12 ppm (corn rootworm; CRW rate 12.00 ppm): 0%; mortality at 24 ppm (corn rootworm; CRW rate 24.00 ppm): 0% |
